# From PMC5587286, “Direct versus indirect actions of ghrelin on hypothalamic NPY neurons” (PLoS ONE, 2017)
# Tests used:
# [1] = tested on: NPY-GFP neurons in hypothalamic slices; format: cell-based, mice
# [2] = tested on: isolated SUR1-/- neurons; format: cell-based, mice
# [3] = target: growth hormone secretagogue receptor (mouse (endogenous in NPY-GFP neurons)) (UniProt Q99P50)
# Sequence of growth hormone secretagogue receptor (mouse (endogenous in NPY-GFP neurons)) (Q99P50 whole entry): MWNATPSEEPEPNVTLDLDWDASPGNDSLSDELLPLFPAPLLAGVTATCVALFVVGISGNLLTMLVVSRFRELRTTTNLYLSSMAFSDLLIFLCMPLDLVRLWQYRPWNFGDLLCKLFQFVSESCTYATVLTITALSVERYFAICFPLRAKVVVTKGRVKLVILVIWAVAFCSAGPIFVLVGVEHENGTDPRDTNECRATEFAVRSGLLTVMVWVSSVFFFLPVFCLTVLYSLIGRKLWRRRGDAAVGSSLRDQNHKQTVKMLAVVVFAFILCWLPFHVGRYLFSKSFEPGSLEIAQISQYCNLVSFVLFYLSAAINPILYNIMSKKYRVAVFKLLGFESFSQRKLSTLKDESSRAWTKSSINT
compound,measurement,setting,value
"NC1=N[C@H](O)[C@H]2[C@H]3O[C@]4(O)O[C@@H]([C@@H](O)[C@@]2(N1)[C@@H]4O)[C@]3(O)CO [TTX, tetrodotoxin]",effect on ghrelin-induced changes in MP and IR,[1],reduces these ghrelin-induced changes in both MP and IR
CC1=NS(=O)(=O)c2cc(Cl)ccc2N1 [diazoxide],stimulation of an increase in [Ca2+]c,"[2]; diazoxide 200 μM, neurons from SUR1-/- mice",not
CCCCCCCC(=O)OC[C@H](NC(=O)[C@H](CO)NC(=O)CN)C(=O)N[C@@H](Cc1ccccc1)C(=O)N[C@@H](CC(C)C)C(=O)N[C@@H](CO)C(=O)N1CCC[C@H]1C(=O)N[C@@H](CCC(=O)O)C(=O)N[C@@H](Cc1c[nH]cn1)C(=O)N[C@@H](CCC(N)=O)C(=O)N[C@@H](CCCNC(=N)N)C(=O)N[C@H](C(=O)N[C@@H](CCC(N)=O)C(=O)N[C@@H](CCC(N)=O)C(=O)N[C@@H](CCCNC(=N)N)C(=O)N[C@@H](CCCCN)C(=O)N[C@@H](CCC(=O)O)C(=O)N[C@@H](CO)C(=O)N[C@@H](CCCCN)C(=O)N[C@@H](CCCCN)C(=O)N1CCC[C@H]1C(=O)N1CCC[C@H]1C(=O)N[C@@H](C)C(=O)N[C@@H](CCCCN)C(=O)N[C@@H](CC(C)C)C(=O)N[C@@H](CCC(N)=O)C(=O)N1CCC[C@H]1C(=O)N[C@@H](CCCNC(=N)N)C(=O)O)C(C)C [ghrelin],effect on [Ca2+]c,[2],reversibly stimulated an increase in [Ca^2+]c in a subset of isolated SUR1^-/- neurons
same,average IR decrease,[1],-108 ± 60 MΩ
same,ghrelin-induced changes in MP and IR in the presence of TTX,[1],"persistent, albeit diminished"
same,neurons depolarized due to decreases in IR,[1],~ 70%
same,neurons depolarized with increases in IR,[1],7/22
same,average ΔMP (MP +ghrelin minus MP w/o ghrelin),[1]; SD,3.6 ± 1.7 mV
COc1ccc(Cl)cc1C(=O)NCCc1ccc(S(=O)(=O)NC(=O)NC2CCCCC2)cc1 [glibenclamide],effect on ghrelin action,"[2]; glibenclamide 1 μM, ghrelin 200 pM, neurons from SUR1-/- mice",no significant effect on ghrelin action
Acylated ghrelin (peptide),"EC50 of the rise of [Ca2+]c (fura-2) in isolated NPY-GFP neurons, from averages of the peak heights at each ghrelin concentration",[3],110 pM
